Experimental data from patent US20220241314A1, “COMPOSITIONS AND METHODS FOR TREATMENT OF HEPATITIS B VIRUS INFECTION” (priority 2019, published 2022).

Tested on: HBV cccDNA
Experiment: Decay kinetics of established cccDNA and HBsAg secretion under treatment from 3 dpi to 20 dpi
Assay type: cell-based, HBV (Genotype D)
Conditions: HepG2-hNTCP, treatment from 3 dpi through 20 dpi
Description: (5A) HBV infection and treatment schedule. On day 0 HepG2-hNTCP cells were infected with HBV at moi of 1000 Geq/cell, incubated for 24 hr, and media was replaced. On day three the cells were harvested or treated with DMSO, ETV (500 nM), F7 (10 μM), poly-U/UC (100 ng/ml), or with ETC combination with F7 or poly-U/UC, PAMP. Cells were harvested at the indicated points over a 20-day time course. (5B), (5C) DNA was isolated by Hirt extract and subjected to Southern blot analysis using an HBV-specific DNA probe. Percentage values below each lane indicate the relative amount of cccDNA compared to day three control prior to each treatment. The positions of mass markers are indicated. (5D) cccDNA levels were measured by RT-qPCR. Relative cccDNA values to mitochondrial DNA (MT-CO3) are shown. Statistical significance was determined using Student's t test. Data are presented as mean standard deviation (SD), *P<0.01, **P<0.005, ***P<0.001 and ns=non-significant (E) Half-life of cccDNA from RT-qPCR analyses was estimated from the simultaneous fitting of three replicates under each treatment strategy. C(t) is the % values of cccDNA at time ‘t’ post-treatment, C(0) is the % values of cccDNA at the start of the treatment. (5F) HBsAg across the time course for each treatment series. Statistical significance as determined using Student's t test. Data are presented as mean standard deviations (SD), **P<0.005, and ns=non-significant.
ETV is a nucleoside analog that prevents the viral reverse transcription and replication of new synthesized HBV DNAs, thereby preventing the replenishment of cccDNA by de novo formation. ETV was applied to HBV-infected cultures at a 100-fold IC50 (Langley, D. R., et al. (2007). Inhibition of Hepatitis B Virus Polymerase by Entecavir. Journal of virology 81, 3992-4001) thereby allowing for the measurement of cccDNA half-life under conditions in which levels are sustained only from the initial cccDNA pool. Cells were then harvested over a treatment time course, and DNA extracts were analyzed by Southern blot and qPCR assay. […] J Hepatol 69, 1231-1241). […] Enhanced cccDNA decay kinetics by F7 treatment was also confirmed by RT-PCR analysis (FIG. 5D). […] Thus, F7 and poly-U/UC PAMP impart the therapeutic decay of established cccDNA.
Reverse transcription quantitative real time qPCR (RT-qPCR) analysis: Total cellular RNAs were extracted from cells using TRIZOL reagent and the manufacturers protocol (Invitrogen). cDNA was synthesized from the purified RNA by both random and oligo (dT) priming using iScript select cDNA synthesis kit (Biorad, Inc.). For HBV cccDNA expression analysis, total DNA was extracted using the DNeasy kit (QIAGEN). For selective cccDNA PCR analysis, isolated DNAs were treated with 10 Units of T5 exonuclease (NEB) for 30 min in 10 μl of reaction volume in 37° C., followed by heat-inactivation at 95° C. for 5 min and 4-fold dilution with Nuclease-free water. For extra-cellular HBV DNA quantification, an external HBV plasmid standard was used to program the PCR (Ko, C., et al. (2018), supra).

SMILES: C=C1[C@H](CO)[C@@H](O)C[C@@H]1n1cnc2c(=O)[nH]c(N)nc21 [ETV, Entecavir, reference compound]
- production and secretion of HBsAg: Neither ETV nor X RNA treatment of cells had any effect
- cccDNA levels over treatment time course (Southern blot, qPCR) (ETV 500 nM, F7 10 μM, poly-U/UC 100 ng/ml): stably maintained cccDNA levels over the time course
